# In the OPERA property sets (Mansouri et al. 2018):
smiles,measurement,value
CSC(C)=NOC(=O)N(C)SN(C)C(=O)c1ccc(C)cc1,logP,2.5
CSC1=NCCN1c1ncc([N+](=O)[O-])s1,logP,1.78
CN(C)CNC(=O)c1ccccc1,logP,0.63
CSC(C)=NOC(=O)N(C)SN(C)C(=O)N(C)C,logP,1.2
CCOC(=O)C(C#N)=NNc1cc(Cl)cc(Cl)c1,logP,3.82
CC1=Nc2cc(Br)ccc2S(=O)(=O)N1,logP,1.37
CCOC(=O)C(=Cc1cccc(OC)c1OC)C(C)=O,logP,2.21
OCC(CO)(CO)CBr,logP,-0.7
CCCCNC(=O)NN,logP,-0.6
O=[N+]([O-])C=Cc1cccc(O)c1,logP,2.07
CSC(C)=NOC(=O)N(C)SN(C)C(=O)c1cccc(Cl)c1,logP,2.7
CCN(CC)c1ccc(CO)cc1,logP,2.29
COc1cc(OC)cc(OC(=O)CNC(=O)c2ccccc2)c1,logP,2.69
O=C1CN=C(c2c(F)cccc2F)c2cc(Cl)ccc2N1,logP,2.68
CC(=O)c1cccc(NS(=O)(=O)C(F)(F)F)c1,logP,2.78
CN(C)N=Nc1ccc(S(N)(=O)=O)cc1,logP,1.06
O=NN1CCCCCCC1,logP,1.48
O=C1CCC(=O)N1c1cccc(Cl)c1,logP,0.98
Cc1ccccc1NC(=O)C1CNCCN1 (stereo not drawn),logP,0.26
NC(=O)CCCCn1nnc2ccccc21,logP,0.58
CN(C)c1nc2ccccc2o1,logP,2.1
CNP(=O)(OC)Oc1ccc(Cl)cc1Cl (stereo not drawn),logP,2.41
CCOC(=O)CCCCCn1nnc2ccccc21,logP,2.68
CCN1CCN=C1Nc1ncc([N+](=O)[O-])s1,logP,2.28
O=S(=O)(Nc1ccc(F)cc1)C(F)(F)F,logP,3.25
COc1ccc(Br)cc1Cc1cnc(N)nc1N,logP,2.44
[O-][n+]1ccccc1SCc1ccccc1,logP,1.24
Clc1cccc(C2NCCS2)c1 (stereo not drawn),logP,2.04
COC1C(Cl)C(Cl)C(Cl)C(OC)C1OC (stereo not drawn),logP,1.87
COc1cc(Cc2cnc(N)nc2N)cc(OC)c1I,logP,2.4
CCOC(=O)C(=Cc1ccccc1C)C(C)=O,logP,2.66
COP(=O)(NCC(C)C)SC (stereo not drawn),logP,0.97
CCOc1cc(Cc2cnc(N)nc2N)cc(OCC)c1C(C)(C)O,logP,2.46
CCC(=O)N(C)SN(C)C(=O)ON=C(C)SC,logP,1.6
COc1cc(Cc2cnc(N)nc2N)cc(C)c1OC,logP,1.62
CCCCCCN(SN(C)C(=O)ON=C(C)SC)C(=O)c1ccccc1,logP,4.2
Oc1ccc(C(c2ccc(O)cc2)c2cccnc2)cc1,logP,3.13
Clc1cc(Cl)cc(-c2c(Cl)c(Cl)cc(Cl)c2Cl)c1,logP,7.37
Cn1cnc([N+](=O)[O-])c1S(=O)(=O)Oc1ccccc1,logP,1.08
COc1cc(Cc2cnc(N)nc2N)ccc1Nc1ccccc1,logP,3.42
CC(C)=CC1C(C(=O)OCc2ccc(C#N)cc2)C1(C)C (stereo not drawn),logP,4.91
O=C(O)c1cccc(CSc2ccccc2)c1O,logP,4.28
C[N+](C)(C)Cc1ccccn1.[Br-],logP,-3.4
CCNCNC(=O)c1ccccc1,logP,0.56
CN(C)C1=NC(=O)C(=Cc2ccc([N+](=O)[O-])o2)S1,logP,1.14
O=[N+]([O-])c1nccn1CCS(=O)(=O)c1ccccc1,logP,0.52
CCCNC(=NC#N)NC,logP,0.42
Cn1ncc2ccccc2c1=O,logP,0.61
CCOC(=O)c1ccc2cccccc1-2,logP,3.83
Cn1nnnc1Sc1ccccc1,logP,1.63
Nc1cc([N+](=O)[O-])cc(Cl)c1O,logP,1.53
COC(=O)C(C#N)=NNc1ccccc1C(F)(F)F,logP,3.7
COC(=O)C(C#N)=NNc1ccc(C(F)(F)F)cc1[N+](=O)[O-],logP,3.44
CCCCCc1ccc(O)cc1,logP,4.06
CC(=O)Nc1ccc(OC(=O)CBr)cc1,logP,1.08
CC(=O)C(C#N)=NNc1ccccc1Cl,logP,4
C[N+](C)(C)Cc1cccc(Cl)c1.[Br-],logP,-1.81
O=NN(CCCl)C(=O)NC1CCSCC1,logP,2.07
CCCOn1c(=O)[nH]c(C)c(SC#N)c1=O,logP,-0.22
O=C1CCC(=O)N1c1ccc(F)cc1,logP,0.29
COc1cccc(NC=O)c1,logP,1.25
O=S(=O)(Nc1ccc(F)cc1F)C(F)(F)F,logP,3.06
C=CCC1(C2=CCCC2)C(=O)NC(=O)N(C)C1=O (stereo not drawn),logP,1.89
CCOC(=O)N(C)SN(C)C(=O)Oc1cccc2c1OC(C)(C)C2,logP,3.5
CCCCCNc1ccc(C(=O)OCCN(C)C)cc1,logP,4.14
CN(C)c1nnc(-c2ccccc2)c2ccccc12,logP,3.22
NC(=O)Nc1cnc2ccccc2n1,logP,1.3
FC(F)(F)c1nc2c(Cl)cc(Cl)cc2[nH]1,logP,3.49
CN(C)C(=O)Nc1cccc(OCCc2ccccc2)c1,logP,3.39
CC1CN(N=O)CCN1N=O (stereo not drawn),logP,-0.28
CNc1cc(Cc2cnc(N)nc2N)cc(NC)c1,logP,0.44
CCOC(=O)C(C#N)=NNc1cc(C(F)(F)F)ccc1Cl,logP,4.45
O=[N+]([O-])c1cnc(N=C2NCC(O)CN2)s1 (stereo not drawn),logP,0.74
COc1ccccc1C(=O)NN,logP,0.25
CCN(CC)c1nc(N(C)C)nc(N(C)C)n1,logP,3.45
CCN(CC)c1cc(N)[n+]([O-])c(N)n1,logP,1.16
Clc1ccc(C2NCCS2)cc1 (stereo not drawn),logP,2.1
CON(C)C(=O)Nc1cccc(OCc2ccccc2)c1,logP,3.11
Cn1c(C(O)CO)cnc1[N+](=O)[O-] (stereo not drawn),logP,-0.89
CN(CCO)N=Nc1ccccc1,logP,1.71
CC(=O)Nc1n[nH]c(NC(C)=O)n1,logP,-1.02
NNC(=O)c1ccc(O)cc1,logP,-0.33
CON(C)C(=O)Nc1ccc(C(C)C)cc1,logP,2.95
CCOc1cc(Cc2cnc(N)nc2N)cc(OC)c1C(C)(C)O,logP,2.11
COc1ccc(Cc2cnc(N)nc2N)cc1Nc1ccccc1,logP,2.88
CNP(=O)(OC)Oc1cc(Cl)c(Cl)cc1Cl (stereo not drawn),logP,3.06
CN(C)C(=O)c1cc(N2CC2)c([N+](=O)[O-])cc1[N+](=O)[O-],logP,0.63
NC(=O)CCCCCn1nnc2ccccc21,logP,0.79
Clc1cccc(-c2ccccc2)c1Cl,logP,5.02
Cc1cccc(C)c1NC(=O)CN(C)C,logP,0.94
O=C1CN=C(c2ccccc2Br)c2cc(Cl)ccc2N1,logP,3.17
CCSc1c(OC)cc(Cc2cnc(N)nc2N)cc1OC,logP,1.79
Clc1cc(Cl)c(N=C2NCCN2)cc1Cl,logP,2.11
CC(=O)C(C#N)=NNc1ccc(Cl)c(Cl)c1,logP,4.56
COc1cc(Cc2cnc(N)nc2N)c(Br)cc1Br,logP,3.17
OCC1OC(OC2CCCCC2)C(O)C(O)C1O (stereo not drawn),logP,-0.63
CC1CN(N=O)C(C)CN1N=O (stereo not drawn),logP,0.15
Cc1[nH]c(=O)n(O)c(=O)c1Br,logP,-1.12
COC(=O)C(C#N)=NNc1cc(C(F)(F)F)cc(C(F)(F)F)c1,logP,5.02
CCCCNP(=O)(OC)SC (stereo not drawn),logP,0.94
Cc1nnc(C)s1,logP,0.03
COP(=O)(NC(C)(C)C)Oc1cc(Cl)c(Cl)cc1Cl (stereo not drawn),logP,3.83
Cc1cc(-n2c(=O)cc(C)n2C)nc(C)n1,logP,0.24
Cc1nnc(SCc2ccccc2)[nH]1,logP,1.68
COC(=O)C(C#N)=NNc1ccc(Cl)cc1C,logP,4.3
COc1c(N(C)C)cc(Cc2cnc(N)nc2N)cc1N(C)C,logP,2.05
OCC1OC(SCCCc2ccccc2)C(O)C(O)C1O (stereo not drawn),logP,0.38
CCc1cnc2cccc(C)n2c1=O,logP,1.79
CC(=O)C(C#N)=NNc1ccc2c(c1)OC(F)(F)C(F)(F)O2,logP,5.31
CC(=O)c1ccccc1OC(=O)N(C)C,logP,0.93
CCOP(=O)(OCC)Oc1ccc(SC)c(Cl)c1,logP,2.94
COc1ccc(C2=NCC(=O)N(C)c3ccc(Cl)cc32)cc1,logP,3.15
COc1nnc(C(C)C)c(=O)n1N,logP,-0.06
COC12C(COC(N)=O)C3=C(C(=O)C(C)=C(Nc4nccs4)C3=O)N1CC1NC12 (stereo not drawn),logP,0.62
C=C(C)C(=O)OC(C)C,logP,2.25
CN(C)C(=O)Nc1ccc(Br)cc1,logP,2.19
CCOP(N)(=O)SCC (stereo not drawn),logP,0.15
O=C1CN=C(c2ccccc2F)c2cc(Cl)c(Cl)cc2N1,logP,3.63
Nc1ccc(C(O)C(CO)NC(=O)C(Cl)Cl)cc1 (stereo not drawn),logP,-0.29
CCOC(=O)C(C#N)=NNc1ccc(Cl)c(C(F)(F)F)c1,logP,4.86
COC(CN1CCCC1)c1ccccc1 (stereo not drawn),logP,1.88
CCOC(=O)CN(C(=O)CCl)c1ccccc1Cl,logP,2.3
OCC1OC(Oc2ccccc2I)C(O)C(O)C1O (stereo not drawn),logP,0.27
O=S1(=O)NC(c2cccs2)=Nc2ccccc21,logP,1.68
C[N+](C)(C)Cc1cccc(O)c1.[Br-],logP,-2.4
CCC(=O)Cn1ccnc1C=Cc1occc1[N+](=O)[O-],logP,1.27
CCN(CC)CCNC(=O)c1cc(F)cc(Cl)c1OC,logP,3.18
CN1CCN(N=O)CC1,logP,0.2
CNC(=O)Oc1cccc(C(=O)OC)c1,logP,1.42
C#CC(C=CCl)(CC)OC(N)=O (stereo not drawn),logP,1.71
CC(=O)N(c1ccccc1)S(C)(=O)=O,logP,0.29
CCC(=O)OCC(=O)[C@@]1(O)[C@@H](C)C[C@H]2[C@@H]3CCC4=CC(=O)C=C[C@]4(C)[C@@]3(F)[C@@H](O)C[C@@]21C,logP,3.06
Clc1ncnc2sccc12,logP,1.79
CS(=O)(=O)NN=Cc1ccccc1,logP,1.2
O=[N+]([O-])c1c(Cl)c[n+]([O-])c2ccccc12,logP,1.33
CC(C)Oc1ccccc1OC(=O)N(C)C,logP,2.06
O=S1(=O)NC=Nc2cc(Cl)ccc21,logP,1.01
Cc1cc(=O)n2c(C)cccc2n1,logP,1.05
CCCCCCCCCCCC[n+]1ccc(C)cc1C.[I-],logP,1.41
O=[N+]([O-])c1cc(Cl)c(N=C2NCCN2)c(Cl)c1,logP,2.1
CS(=O)(=O)c1cccc(NS(=O)(=O)C(F)(F)F)c1,logP,1.85
Nc1cccc2nccnc12,logP,1.29
Cc1cc(C)c(NC2=NCCN2)c(C)c1,logP,2.32
CC(C)(C)C(=O)C(C#N)=NNc1cccc(Cl)c1,logP,4.62
Cc1csc(C=Cc2ccc([N+](=O)[O-])o2)n1,logP,1.53
CCCCNc1nnc(C(C)C)c(=O)n1N,logP,1.78
CC1=Nc2cc(C)ccc2S(=O)(=O)N1,logP,0.74
CCOC(=O)CN(C(=O)CCl)c1ccccc1CC,logP,2.57
CCNC1CC2CC1c1ccccc12 (stereo not drawn),logP,2.72
COc1cc(Cc2cnc(N)nc2N)ccc1O,logP,0.64
O=C(O)COc1ccc(C2CCCC2)cc1,logP,3.41
COc1cc(-n2nc(C)cc2OC)nc(OC)n1,logP,1.86
c1ccc(-c2ncnc3ccccc23)cc1,logP,2.71
